These results are taken from article PMC7083851, “Extended pharmacodynamic responses observed upon PROTAC-mediated degradation of RIPK2” (Communications Biology, 2020).

Molecules are shown by their SMILES. “And” between values parts separate entries of the source, which are not always exact repeats. Equal values may be shown once. A value given as a limit tells only on which side of the number the result lay.

In one data set the target is RIPK2 (Homo sapiens, UniProt O43353). Description: RIPK2 fluorescence polarisation binding assay. Background: In fluorescence polarisation assays a small probe gives low polarisation when free and higher when bound to something large.
Sequence of RIPK2 (O43353 whole entry): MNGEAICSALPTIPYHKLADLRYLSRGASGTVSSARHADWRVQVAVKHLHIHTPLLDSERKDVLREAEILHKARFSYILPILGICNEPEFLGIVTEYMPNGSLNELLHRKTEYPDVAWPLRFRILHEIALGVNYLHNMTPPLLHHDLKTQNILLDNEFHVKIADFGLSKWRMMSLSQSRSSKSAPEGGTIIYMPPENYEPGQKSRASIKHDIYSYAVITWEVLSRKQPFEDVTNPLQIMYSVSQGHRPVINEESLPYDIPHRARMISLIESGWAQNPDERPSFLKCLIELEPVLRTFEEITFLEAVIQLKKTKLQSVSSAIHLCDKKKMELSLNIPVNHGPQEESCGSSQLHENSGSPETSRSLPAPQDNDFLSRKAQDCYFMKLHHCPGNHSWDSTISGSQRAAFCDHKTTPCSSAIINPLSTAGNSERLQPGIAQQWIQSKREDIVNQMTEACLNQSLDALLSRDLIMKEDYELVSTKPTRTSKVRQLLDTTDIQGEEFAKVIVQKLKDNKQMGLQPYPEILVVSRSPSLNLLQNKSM
Another data set is described as follows: Rat intravenous PK. The data set is classed as in vivo. Here is the method: Rats (n = 3) received a single intravenous (IV) bolus administration (1 mg/kg, 4 mL/kg, n = 3 rats) formulated as a solution in saline with the pH adjusted to 4.0.
Aliquots of diluted whole blood (50:50) were analysed using quantitative high-performance liquid chromatography with tandem mass spectrometric detection (LC/MS/MS) following protein precipitation. […] PK parameters were generated following non-compartmental analysis (Phoenix® WinNonlin® (Certara, L.P., St. Louis, MO)) of the resulting concentration-time data.

Data set [1] is described as follows: High-throughput precipitation solubility, chemiluminescent nitrogen-specific detection (CLND). The format is physicochemical. To be noted: high-throughput.
Data set [2] has as its system spontaneous IL-1β, IL-6, and TNFα release. Nature of the data set: Spontaneous cytokine release (IL-1β, IL-6, TNFα) from ulcerative colitis patient intestinal biopsies. The conditions noted are these: for IL-1b (Ctrl=DMSO = 100) / IL-6 (Ctrl=DMSO = 100) / TNFa (Ctrl=DMSO = 100): individual biopsies, fig 4f. The data set is classed as cell-based, human. How it is done:
Colonic biopsies or tissues were obtained during endoscopy or via surgical resection from Crohn’s Disease (CD) or Ulcerative Colitis (UC) patients (St Bartholomew’s Hospital, London). All patients gave informed written consent. For surgical specimens, the mucosa was dissected away from the submucosa and cut into pieces of ~10–20 mg. […] The supernatants were collected for cytokine measurement as detailed in cytokines assay section while tissues were used to determine RIPK2 levels.
(§1) Cytokine measurement assay: Cytokine levels were measured in rat plasma or rat PBMCs cell culture supernatants using rat V-Plex TNFα, in human plasma or human PBMCs cell culture supernatants with either TNFα tissue culture or 7-plex kit. Rat serum and tissues samples from the in vivo L18-MDP acute inflammation model were analyzed using the rat TNFα, Il-6 and IL-8 U-Plex kits. All kits provided by Meso Scale Discovery (MSD). Levels of cytokines spontaneously released from human colon biopsies cell culture supernatants were measured using Human IL-1 beta/IL-1F2 DuoSet ELISA (Bio-techne), Human IL-6 ELISA (Immunotools) and Human TNF-alpha DuoSet ELISA (Bio-techne). All samples were processed accordingly to the manufacturer’s instructions. The MSD plates were analyzed using the MSD sector imager 6000 plate reader and cytokines concentration (pg/ml) was obtained by using the MSD DISCOVERY WORKBENCH software version 4.0.12.1

The target of a further data set is T1, cIAP2 (Homo sapiens, UniProt Q13489).
T1 construct: endogenous in cells; host or cells: primary human PBMCs
T1 sequence (Q13489 whole entry): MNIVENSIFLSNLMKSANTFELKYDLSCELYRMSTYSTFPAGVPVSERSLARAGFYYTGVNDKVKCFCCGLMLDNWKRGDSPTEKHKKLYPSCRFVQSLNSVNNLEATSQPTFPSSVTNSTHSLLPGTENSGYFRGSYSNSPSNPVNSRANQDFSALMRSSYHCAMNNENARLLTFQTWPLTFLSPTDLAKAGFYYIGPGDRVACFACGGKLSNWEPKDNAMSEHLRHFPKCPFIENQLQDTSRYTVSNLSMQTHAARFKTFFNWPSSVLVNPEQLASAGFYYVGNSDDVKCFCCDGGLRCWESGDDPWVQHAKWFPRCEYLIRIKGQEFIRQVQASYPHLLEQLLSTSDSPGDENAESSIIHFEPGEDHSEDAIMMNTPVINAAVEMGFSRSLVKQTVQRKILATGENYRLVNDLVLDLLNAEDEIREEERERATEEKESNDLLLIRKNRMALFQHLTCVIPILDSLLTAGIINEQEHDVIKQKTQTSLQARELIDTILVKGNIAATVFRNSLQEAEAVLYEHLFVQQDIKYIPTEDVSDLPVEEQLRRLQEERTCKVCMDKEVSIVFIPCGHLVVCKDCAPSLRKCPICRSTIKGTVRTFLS
Description: cIAP2 levels in human PBMCs, 24 h, capillary immunoassay. To be noted: up to 1uM. The format is cell-based. Here is the method: Where the assessment of cytokines was performed, L18-MDP was added to the cell culture media (1 μg/ml) or to the rat blood samples (100 ng/ml) and samples were incubated for up to 4 h. For human blood, 250 ng/ml MDP (Invivogen) was added following compound treatment and the samples were further incubated for 5 h. Samples were them spun down at 1000 g and the cell culture supernatant, plasma or serum were collected for cytokines assessment, while cell pellets were used for RIPK2 and/or cIAP1, cIAP2, and XIAP levels analysis via immunoblotting.
Simple Western immunoassay: Cell lysates were mixed with 5× concentrated master mix (Protein Simple) and denatured at 95 °C on a heat block for 5 min together with the provided ladder (Protein Simple). Antibodies were diluted in the provided buffer as following: anti-RIPK2 (1:10 or 1:50), anti-cIAP1(1:10), anti-cIAP2 (1:10), anti-XIAP (1:10), mouse anti-β-actin (Abcam - 1:1000), rabbit anti-β-actin (Abcam - 1:50) and anti-vinculin (1:100). […] All samples were analyzed using the associated Compass software 3.1.7. […]
Cell viability was assessed by using Cell Titer
Kit (Promega) according to the manufacturer’s instructions. Samples were analysed using […]

The next data set concerns Caspases 3 and 7. Nature of the data set: Caspase 3/7 activation in human PBMCs (Caspase-Glo 3/7), 24 h.
The test system of data set [3] is L18-MDP-induced cytokine release. Description: In vivo L18-MDP acute inflammation model, spleen cytokines. Further details: species or system rat; cytokine level (fig 6d) / cytokine level (fig 6e) / cytokine level (fig 6f): unit not given here. To be noted: for cytokine level (fig 6e) / cytokine level (fig 6f) / cytokine level (fig 6d): spleen, individual rats, beside L18-MDP control. Here is the method:
In vivo L18-MDP administration to rodents results in an acute inflammatory response characterised by the rapid production of inflammatory cytokines. […]. […]. Blood concentrations of 6 and 7 tracked closely and dropped below the LLQ after 24 h.
. Cytokine levels were determined in serum generated from the terminal blood samples and in tissue lysates as detailed below.
as §1
For in vivo studies, RIPK2:tubulin ratios and cytokine levels from each individual experiment were analysed either using a One-way ANOVA with Dunnet’s post-test or a two way ANOVA using GraphPad Prism 5.0.4 to determine statistical significance with 95% confidence levels.

As usually defined, the clearance is the volume of plasma or blood freed of the substance per unit of time. The solubility is the concentration that dissolves in the medium under given conditions. `CN[C@@H](C)C(=O)N[C@H](C(=O)N1CCC[C@H]1c1nc(C(=O)c2ccc(F)cc2)cs1)C1CCN(C(=O)c2cnc(N3CCN(CCOc4cc5ncnc(Nc6n[nH]c(C)c6C)c5cc4S(=O)(=O)C(C)(C)C)CC3)nc2)CC1` [PROTAC 4]: on RIPK2, the “RIPK2 FP pIC50 ± SEM (n)” value was 6.6 ± 0.02 (8). The “mean intravenous clearance in rats, in words” value in the data set “Rat intravenous PK” (in vivo, iv) is on record as “less than a quarter of liver blood flow”. The clearance in the data set “Rat intravenous PK” (male, Sprague Dawley (PROTAC 4), Han Wistar (PROTAC 6), whole blood, IV bolus (4: 2 mg/kg; 6: 1 mg/kg)) stood at 18 mL/min/kg. Besides, the half-life in “Rat intravenous PK” (male, Sprague Dawley (PROTAC 4), Han Wistar (PROTAC 6), whole blood, IV bolus (4: 2 mg/kg; 6: 1 mg/kg), read-out: Rat T½ (converted)) was 414 min. Besides, the Vd in “Rat intravenous PK” (male, Sprague Dawley (PROTAC 4), Han Wistar (PROTAC 6), whole blood, IV bolus (4: 2 mg/kg; 6: 1 mg/kg), read-out: Rat Vdss) was 11 L/kg. The same compound returned a solubility in data set [1] of over 311 µM.
The IC50 is the point on the concentration scale where inhibition reaches its midpoint. With `CN[C@@H](C)C(=O)N[C@H](C(=O)N1C[C@@H](NC(=O)c2cnc(N3CCN(CCCOc4cc5ncnc(Nc6n[nH]c(C)c6C)c5cc4S(=O)(=O)C(C)(C)C)CC3)cn2)C[C@H]1C(=O)Nc1c(F)cccc1F)C(C)(C)C` [PROTAC 6], the IC50 in data set [2] (Homo sapiens, 24 h, read-out: IC50 inhibition of spontaneous cytokine release) lay within 1 to 3 nM. In addition, the “IL-1b (Ctrl=DMSO = 100)” value in data set [2] (compound concentration 0.05 nM) is 133 and 73 and 55; in data set [2] (compound concentration 0.5 nM), 74 and 22 and 52 and 46; in data set [2] (compound concentration 5 nM), 49 and 88 and 62 (2×) and 28 and 58 and 77 and 41 and 55 and 30 and 27 (2×) and 11 and 37 and 67 and 54 and 44 and 40 and 39; in data set [2] (compound concentration 50 nM) it was 38 and 22 and 12 (2×) and 95 and 26 and 24 and 43 and 15 and 68 and 21 and 1 and 23 and 39 and 18 and 7 and 11 and 34. The “IL-6 (Ctrl=DMSO = 100)” value was 93 and 184 and 79 and 87 and 89 and 91 in data set [2] (compound concentration 0.05 nM); 92 and 83 and 67 and 77 and 80 and 11 and 42 in data set [2] (compound concentration 0.5 nM); 56 and 59 and 11 and 74 and 96 and 85 and 64 and 76 (2×) and 88 and 71 and 79 and 77 and 55 and 44 and 53 and 86 and 25 and 29 in data set [2] (compound concentration 5 nM); 60 and 39 and 68 and 67 and 21 (2×) and 10 and 19 and 76 and 22 and 48 (2×) and 75 and 36 and 35 and 62 and 11 and 24 in data set [2] (compound concentration 50 nM). Also, the “TNFa (Ctrl=DMSO = 100)” value in data set [2] (compound concentration 0.05 nM) is 89 and 94 (2×) and 80 and 99; in data set [2] (compound concentration 0.5 nM), 130 and 71 and 83 and 70 and 41 and 86; in data set [2] (compound concentration 5 nM), 36 and 47 and 58 and 65 and 88 and 75 and 56 and 78 and 49 and 67 (2×) and 48 and 31 and 86 and 41 and 66 and 57; in data set [2] (compound concentration 50 nM) it was 28 and 33 (2×) and 29 (2×) and 4 and 49 and 47 and 53 and 35 and 57 (2×) and 60 and 15 and 56 and 46 and 19 and 25 and 65. The “change in cIAP2 protein levels, in words” value at cIAP2 is reported as “no change in protein levels”. Moreover, in the data set on Caspases 3 and 7, the “effect on caspases 3/7 activation, in words” value is recorded as “no”. The “inhibition of TNFα and IL-8 in spleen, in words” value in data set [3] (rat, 0.3 mg/kg SC, intravenous L18-MDP challenge) is “short-lived and returned to basal levels by the third day post-dose”. The “cytokine level (fig 6e)” value in data set [3] (time 6 h) is 14.13 and 34.14 and 14.02 and 19.73 and 14.97; in data set [3] (time 24 h), 45.7 and 38.46 and 58.3 and 40.91 and 52.98; in data set [3] (time 72 h), 111.22 and 59.85 and 73.1 and 99 and 52.1; in data set [3] (time 240 h), 97.65 and 76.46 and 96.01 and 80.21 and 59.48; in data set [3] (time 408 h), 146.67 and 133.23 and 180.63 and 211.01 and 68.17. The “cytokine level (fig 6f)” value in data set [3] (time 6 h) was 4.45 and 4.35 and 4.34 and 3.21 and 3.53; in data set [3] (time 24 h) it was 4.32 and 2.78 and 5.01 and 2.54 and 9.72; in data set [3] (time 72 h), 75.27 and 51.34 and 57.62 and 94.65 and 61.7; in data set [3] (time 240 h), 72.27 and 99.15 and 93.27 and 64.45 and 48.45; in data set [3] (time 408 h) it was 79.92 and 69.55 and 103.81 and 98.05 and 47.92. Further, the “cytokine level (fig 6d)” value is 2.77 (2×) and 3.58 and 3.26 and 3.28 in data set [3] (time 6 h); 4.43 and 2.62 and 4.18 and 4.64 and 5.01 in data set [3] (time 24 h); 45 and 42.87 and 29.6 and 47.75 and 33.69 in data set [3] (time 72 h); 65.15 and 73.34 and 58.46 and 1.72 and 47.46 in data set [3] (time 240 h); 41.62 and 64.64 and 76.25 and 77.33 and 37.06 in data set [3] (time 408 h).
